Assay results from patent US9920039B2, “1,2,4-Oxadiazol compounds active against gram-positive pathogens” (UNIVERSITÀ DEGLI STUDI DI MILANO—BICOCCA, priority 2013, dated 2018).
Converted amounts (≈) assume the structure as drawn. Like-named read-outs stand apart in the source and are kept apart here.

What was measured:
[1] = test system: Staphylococcus aureus ATCC 29213; assay: MIC by broth microdilution (CLSI); type: cell-based; settings: read-out: MIC
Text: (§1) Several well characterized for their antibiotic-susceptibility phenotype Staphylococcus aureus isolates were used for the determination of the in vitro antibacterial activity of the studied compounds. In particular, S. aureus ATCC 29213 reference standard strain and S. aureus M923 (collection strain) were used as MSSA strains. Among MRSA, S. aureus MU50 (ATCC 700699) reference standard strain and two collection strains (433 and F511) were used for susceptibility assays.
(§2) The in vitro antibacterial activity of the new agents was studied by determining their minimum inhibitory concentrations (MICs) by means of the broth microdilution method according to the Clinical and Laboratory Standards Institute (CLSI) guidelines.[16] Briefly, serial 2-fold dilutions of each compound were made using the Cation adjusted Mueller-Hinton broth (CAMHB) in microtitre plates with 96 wells. Dimethyl sulfoxide (DMSO) was used as solvent for all the synthesized compounds. An equal volume of the bacterial inoculum (1×10^6 CFU/mL) was added to each well on the microtitre plate containing 0.05 mL of the serial antibiotic dilutions. The microtitre plate was then incubated at 37° C. for 18-24 h after which each well was analysed for the presence of bacterial growth. The MIC was defined as the lowest concentration of antimicrobial agent able to cause inhibition of bacterial growth as shown by the lack of turbidity of the culture medium. […] Final DMSO concentrations were also taken into account in all the biological assays.
(§3) The antimicrobial activities, summarized in Table 2, were determined by the “gold standard” method of broth microdilution, as recommended by the Clinical Laboratory Standards Institute (CLSI) (See the Experimental Section). […] In detail, the bacterial strains were tested: Staphylococcus aureus ATCC 29213, a clinical strain of methicillin-susceptible S. aureus (M923), S. aureus MU50 (methicillin-resistant—MRSA), and two methicillin-resistant clinical strains, 433 and F511.
(§4) The antimicrobial activities, summarized in Table 3, were determined by the “gold standard” method of broth microdilution, as recommended by the Clinical Laboratory Standards Institute (CLSI) (See the Experimental Section). The minimum inhibitory concentration (MIC) values were expressed in μg/mL. […] In detail, the tested bacterial strains were: Staphylococcus aureus ATCC 29213, a clinical strain of methicillin-susceptible S. aureus (M923), S. aureus MU50 (methicillin-resistant—MRSA) strain, and two methicillin-resistant clinical strains, 433 and F511.

[2] = test system: MRSA clinical strain 433; assay: MIC by broth microdilution (CLSI); type: cell-based, Staphylococcus aureus; settings: Staphylococcus aureus; MRSA 433; racemic mixture; Table 2; read-out: MIC
Text: as §1, §2, §3, §4

[3] = test system: MRSA clinical strain F511; assay: MIC by broth microdilution (CLSI); type: cell-based, Staphylococcus aureus; settings: Staphylococcus aureus, racemic mixture, Table 2, read-out: MIC
Text: as §1, §2, §3, §4

[4] = test system: S. aureus MU50 (ATCC 700699), methicillin-resistant (MRSA); assay: MIC by broth microdilution (CLSI); type: cell-based, Staphylococcus aureus; settings: Staphylococcus aureus, racemic mixture, Table 2, read-out: MIC
Text: as §1, §2, §3, §4

[5] = test system: methicillin-susceptible S. aureus (M923); assay: MIC by broth microdilution (CLSI); type: cell-based, Staphylococcus aureus; settings: Staphylococcus aureus; MSSA M923; racemic mixture; Table 2; read-out: MIC
Text: as §1, §2, §3, §4

[6] = test system: HaCaT (human keratinocytes) cells; assay: Cell viability, MTT assay; type: cell-based; settings: P<0.01, FIG. 3
Protocol: (§5) [17-19] HepG2 and HaCat cells were grown in Dulbecco's modified eagles medium (DMEM) whereas PK15 in DMEM/M199 (1:1). All media were supplemented with 10% heat inactivated foetal bovine serum (FBS), 2 mM L-glutamine, 100 units/mL penicillin and 100 μg/mL streptomycin. Cells were maintained at 37° C. in a 5% CO2 atmosphere. All reagents for cell culture were from Euroclone (Pero, Italy).
(§6) Cell viability was measured by the MTT assay.[20] Briefly, MTT [3-(4,5-Dimethylthiazol-2-yl)-2,5-diphenyltetrazolium bromide] stock solution (5 mg/mL) was added to each well to a final concentration of 1.2 mM, and cells were incubated for 1 hour and 30 minutes at 37° C. After removing MTT solution, the reaction was stopped by adding 90% ethanol. Resuspended cells were centrifuged 10 min at 800×g. The absorbance was measured with the multilabel Victor^3 spectrophotometer (Perkin Elmer, Turku, Finland) at wavelength of 570 nm. Data are means±S.E. of 3 separate experiments performed in triplicate.
(§7) Statistical significance was obtained with Student'st test in comparison with controls *=P≤0.05, **=P≤0.001. Data are means±S.E. of 3 separate experiments performed in triplicate.
(§8) Another control was DMSO used as solvent.

[7] = test system: HepG2 (human hepatocellular carcinoma) cells; assay: Cell viability, MTT assay; type: cell-based; settings: FIG. 4
Protocol: as §5, §6, §7, §8

[8] = test system: PK15 (porcine kidney epithelial) cells; assay: Cell viability, MTT assay; type: cell-based; settings: 5-400 μg/mL, FIG. 2
Protocol: as §5, §6, §7, §8

[9] = test system: ATCC E. faecalis 29212; assay: MIC by broth microdilution (Table 5); type: cell-based, Enterococcus faecalis
Protocol: Dimethyl sulfoxide (DMSO) was used as solvent for all the synthesized compounds. An equal volume of the bacterial inoculum (1×10^6 CFU/mL) was added to each well on the microtitre plate containing 0.05 mL of the serial antibiotic dilutions. The microtitre plate was then incubated at 37° C. for 18-24 h after which each well was analysed for the presence of bacterial growth. The MIC was defined as the lowest concentration of antimicrobial agent able to cause inhibition of bacterial growth as shown by the lack of turbidity of the culture medium. […] Final DMSO concentrations were also taken into account in all the biological assays.

[10] = test system: Linezolid-resistant S. epidermidis Strains 1-10; assay: MIC by broth microdilution (Table 5); type: cell-based, Staphylococcus epidermidis
Text: as §2

[11] = test system: Linezolid-resistant S. hominis Strain 11; assay: MIC by broth microdilution (Table 5); type: cell-based, Staphylococcus hominis; settings: S. hominis Strain 11, linezolid-resistant
Text: as §2

[12] = test system: 11 Linezolid-resistant CoNS; assay: MIC summary on strain panel (Table 5); type: cell-based, Staphylococcus epidermidis, Staphylococcus hominis; settings: for MIC50 / MIC90: 11 Linezolid-resistant CoNS
Text: as §2

[13] = test system: 45 Linezolid-susceptible MRSA; assay: MIC summary on strain panel (Table 5); type: cell-based, Staphylococcus aureus
Text: In particular, eleven linezolid-resistant coagulase-negative staphylococci (CoNS) (ten S. epidermidis and one S. hominis) were investigated. The eleven linezolid-resistant strains were isolated in several hospital settings between 2010 and 2011 from positive blood cultures. For the […], recently isolated from patients with cystic fibrosis, showing different profiles of multi-resistance to different classes of antimicrobials, was used (Table 4 and 5).
as §2

[14] = test system: mitochondrial protein synthesis (OXPHOS complexes) in HepG2 cells; assay: Oxidative phosphorylation (OXPHOS) assay
Text: This assay (Nadaciva S. et al., 2010) is used to monitor the level of mitochondrial protein synthesis of some key proteins in the process of oxidative phosphorylation of eukaryotic cells, comparing it with the level of synthesis of mitochondrial proteins encoded by nuclear DNA. This study allows us to analyze the effects of A4bS on the proteins encoded by mitochondrial DNA (mtDNA).
The data represent the mean±SEM of three separate experiments performed in triplicate. Statistical significance is obtained by the Student's test compared to the […].

[15] = ATCC S. aureus 29213, resolved enantiomers, Table 5
[16] = S. epidermidis Strain 1, linezolid-resistant
[17] = S. epidermidis Strain 2, linezolid-resistant
[18] = S. epidermidis Strain 3, linezolid-resistant
[19] = S. epidermidis Strain 4, linezolid-resistant
[20] = S. epidermidis Strain 5, linezolid-resistant
[21] = S. epidermidis Strain 6, linezolid-resistant
[22] = S. epidermidis Strain 7, linezolid-resistant
[23] = S. epidermidis Strain 8, linezolid-resistant
[24] = S. epidermidis Strain 9, linezolid-resistant
[25] = S. epidermidis Strain 10, linezolid-resistant

| SMILES | MIC [1, 15] [µg/mL] | MIC [9] [µg/mL] | MIC [10, 16] [µg/mL] | MIC [10, 17] [µg/mL] | MIC [10, 18] [µg/mL] | MIC [10, 19] [µg/mL] | MIC [10, 20] [µg/mL] | MIC [10, 21] [µg/mL] | MIC [10, 22] [µg/mL] | MIC [10, 23] [µg/mL] | MIC [10, 24] [µg/mL] | MIC [10, 25] [µg/mL] | MIC [11] [µg/mL] | MIC50 [12] [µg/mL] | MIC90 [12] [µg/mL] | MIC50 [13] [µg/mL] | other results |
| --- | --- | --- | --- | --- | --- | --- | --- | --- | --- | --- | --- | --- | --- | --- | --- | --- | --- |
| CC(=S)NCC1CN(c2ccc(-c3nc(C)no3)c(F)c2)C(=O)O1 (racemic) [Compound A4b, 3-(3′-fluoro-4′-(3″-methyl-1,2,4-oxadiazol-5-yl)-phenyl)-5-(N-thioacetylaminomethyl)-oxazolidin-2-one] |  |  |  |  |  |  |  |  |  |  |  |  |  |  |  |  | MIC ([1]; Staphylococcus aureus, ATCC29213, ATCC 29213, racemic mixture, Table 2): 1.6 µg/mL (≈ 4.57 µM); MIC [2]: 0.8 µg/mL (≈ 2.28 µM); MIC [3]: 1.6 µg/mL (≈ 4.57 µM); MIC [4]: ≤ 0.4 µg/mL; MIC [5]: 1.6 µg/mL (≈ 4.57 µM); concentration reaching statistically significant mortality compared to linezolid [6]: 400 µg/mL; concentration from which a reduction in viability was shown [7]: ≥ 50 µg/mL; reduction of viability [8]: less than 10% |
| CC(=S)NC[C@H]1CN(c2ccc(-c3nc(C)no3)cc2)C(=O)O1 [Compound A4aS] | 8 (≈ 24.1 µM) | 4 (≈ 12 µM) | 8 (≈ 24.1 µM) | 32 (≈ 96.3 µM) | 4 (≈ 12 µM) | 32 (≈ 96.3 µM) | 4 (≈ 12 µM) | 4 (≈ 12 µM) | 32 (≈ 96.3 µM) | 32 (≈ 96.3 µM) | 1 (≈ 3.01 µM) | 8 (≈ 24.1 µM) | 8 (≈ 24.1 µM) | 8 (≈ 24.1 µM) | 32 (≈ 96.3 µM) | 2 (≈ 6.02 µM) |  |
| CC(=S)NC[C@H]1CN(c2ccc(-c3nc(C)no3)c(F)c2)C(=O)O1 [Compound A4bS] | 4 (≈ 11.4 µM) | 2 (≈ 5.71 µM) | 8 (≈ 22.8 µM) | 8 (≈ 22.8 µM) | 4 (≈ 11.4 µM) | 4 (≈ 11.4 µM) | 2 (≈ 5.71 µM) | 4 (≈ 11.4 µM) | 8 (≈ 22.8 µM) | 2 (≈ 5.71 µM) | 1 (≈ 2.85 µM) | 4 (≈ 11.4 µM) | 4 (≈ 11.4 µM) | 4 (≈ 11.4 µM) | 8 (≈ 22.8 µM) | 0.5 (≈ 1.43 µM) | effect on linezolid resistance (in words) ([12]; linezolid-resistant Staphylococcus spp. strains): completely reversed resistance to linezolid into susceptibility; effect on proteins synthesized by mtDNA (in words) [14]: reduction of the synthesis of proteins of complex I and IV |
